Key:
C. albicans = experiment: MKC of preservatives and synergy (Example 14); format: cell-based; conditions: polymer 0.2% w/w, mix as ratio
Procedure: (§1) Overnight broths of challenge cultures were prepared and the Total Viable Count (TVC) of the overnight cultures was estimated.
(§2) The samples were serially diluted 1 to 1 using sterile normal saline (5 mL). Sterile Hard Water (SHW) was used as diluent when testing samples containing EDTA.
(§3) 1 part of each overnight culture was diluted in 9 parts diluent. The resulting diluted suspensions were used as the inocula.
(§4) Inoculate each sample dilution with 100 μL of the diluted overnight culture. (One culture per tube). Mix well.
(§5) The tubes were incubated for ≦24 hours at 37° C. (A. niger was incubated at 28° C. for ≦24 hours).
(§6) From each test tube, 1 mL was subcultured into 9 mL of recovery broth and mixed well (Recovery Broths: Nutrient Broth+3% Tween 80 (NBT) for polymeric antimicrobial and EDTA; Nutrient Broth+3% Tween 80+(NBTA) for glutaraldehyde and, Letheen Broth (LB) for methyl parabens).
(§7) The samples incubated at 37° C. for a further ≦48 hours. (28° C. for ≦5 days for A niger).
(§8) Each tube was examined for growth. All tubes were then subcultured onto selective agar and incubated for ≦24 hours at 37° C. (28° C. for ≦5 days for A. niger). Growth on selective agar was taken to confirm growth of the test organism.

P. aeruginosa = experiment: MKC of preservatives and synergy (Example 14); format: cell-based
Procedure: as §1, §2, §3, §4, §5, §6, §7, §8

S. aureus = experiment: MKC of preservatives and synergy (Example 14); format: cell-based
Procedure: as §1, §2, §3, §4, §5, §6, §7, §8

A. niger = experiment: MKC of preservatives and synergy (Example 14); format: cell-based; conditions: polymer 0.2% w/w
Procedure: as §1, §2, §3, §4, §5, §6, §7, §8

E. coli = experiment: MKC of preservatives and synergy (Example 14); format: cell-based
Procedure: as §1, §2, §3, §4, §5, §6, §7, §8

[1] = in vivo
Description: Chickens treated each of the antimicrobials were compared with a control group according to the following procedure:
In each trial 20 Cob chickens (Line 53), day old were purchased from a commercial hatchery. They were weighed, sexed and randomly assigned into adjacent pens in a room of an isolated animal house. There was an even distribution of male and female chickens. Water and feed were available ad libitum. The diet was a commercial crumble (Chick Starter, Milne Feeds: 18% crude protein) with a coccidiostat present (125 ppm Dinitolomide).
Ten chickens were administered the formulation of 0.1% w/w of normally activated antimicrobial from Example 10a in the water for 14 days through static drinkers; dose rate of 30 mg/kg/day. The other ten chickens were the Control Group.
Both groups of chickens were weighed on days 0, 4, 7, 11 and 14. At the completion of the trial all chickens were euthanised, and the treated chickens were autopsied post mortem. A thorough gross examination of the thoracic and abdominal cavities was performed.

O=C(O)CN(CCN(CC(=O)O)CC(=O)O)CC(=O)O [EDTA]
MKC (C. albicans; inoculum 3.2 × 10^6 cfu/mL, EDTA 0.1% w/w): 1000 | MKC (P. aeruginosa; inoculum 9.4 × 10^8 cfu/mL, polymer 0.2% w/w, EDTA 0.1% w/w, mix as ratio): 1000 | MKC (S. aureus; inoculum 1.3 × 10^9 cfu/mL, polymer 0.2% w/w, EDTA 0.1% w/w, mix as ratio): >1000 | MKC (A. niger; inoculum 3.0 × 10^7 cfu/mL, EDTA 0.1% w/w, mix as ratio polymeric antimicrobial:preservative): >1000 | MKC (E. coli; inoculum 1.0 × 10^9 cfu/mL, polymer 0.2% w/w, EDTA 0.1% w/w, mix as ratio): >1000

O=CCCCC=O [Glutaraldehyde]
MKC (C. albicans; inoculum 3.0 × 10^6 cfu/mL, Glutaraldehyde 0.025% w/w): 125 | MKC (P. aeruginosa; inoculum 1.9 × 10^9 cfu/mL, polymer 0.025% w/w, Glutaraldehyde 0.025% w/w): 31 | MKC (S. aureus; inoculum 1.5 × 10^9 cfu/mL, polymer 0.025% w/w, Glutaraldehyde 0.025% w/w): 7 | MKC (A. niger; inoculum 3.3 × 10^7 cfu/mL, Glutaraldehyde 0.025% w/w start solutions, mix as ratio polymeric antimicrobial:preservative): >250 | MKC (E. coli; inoculum 1.6 × 10^9 cfu/mL, polymer 0.025% w/w, Glutaraldehyde 0.025% w/w): 3.5

COC(=O)c1ccc(O)cc1 [Methyl Paraben]
MKC (C. albicans; inoculum 1.1 × 10^7 cfu/mL, Methyl Paraben 1% w/w, in 80% w/w glycerol): 1250 | MKC (P. aeruginosa; inoculum 1.8 × 10^9 cfu/mL, polymer 0.2% w/w, Methyl Paraben 1% w/w, in 80% w/w glycerol, mix as ratio): 1250 | MKC (S. aureus; inoculum 1.3 × 10^9 cfu/mL, polymer 0.2% w/w, Methyl Paraben 1% w/w, in 80% w/w glycerol, mix as ratio): 2500 | MKC (A. niger; inoculum 2.2 × 10^7 cfu/mL, Methyl Paraben 1% w/w, in 80% w/w glycerol, mix as ratio): 10000 | MKC (E. coli; inoculum 9.6 × 10^8 cfu/mL, polymer 0.2% w/w, Methyl Paraben 1% w/w, in 80% w/w glycerol, mix as ratio): 2500

poly(2-propenal, 2-propenoic acid) [Example 10a]
clinical or pathological signs of toxicity at gross examination post-mortem [1]: no clinical or pathological signs of toxicity were evident

Source: patent publication US7629002B2, “Antimicrobial polymeric compositions and method of treatment using them” (Chemeq Ltd., priority 2000, dated 2009)
